Measured values taken from patent publication US12486298B2, “Fucosyltransferase specific inhibition using fucose mimetics” (THE FLORIDA INTERNATIONAL UNIVERSITY BOARD OF TRUSTEES, priority 2020, dated 2025).

Tests used:
[1] = target: T1, fucosyltransferase VI (FTVI) (Homo sapiens, UniProt P51993); assay: FTVI exofucosylation of mesenchymal stem cells (MSC), sLe^x and Le^x by flow cytometry; type: cell-based; conditions: MSCs; 1.0 mM GDP-Fuc with 1.0 mM or 2.0 mM mimetic 1
T1 construct: purchased R&D systems
T1 sequence (P51993 35-359 limits assumed): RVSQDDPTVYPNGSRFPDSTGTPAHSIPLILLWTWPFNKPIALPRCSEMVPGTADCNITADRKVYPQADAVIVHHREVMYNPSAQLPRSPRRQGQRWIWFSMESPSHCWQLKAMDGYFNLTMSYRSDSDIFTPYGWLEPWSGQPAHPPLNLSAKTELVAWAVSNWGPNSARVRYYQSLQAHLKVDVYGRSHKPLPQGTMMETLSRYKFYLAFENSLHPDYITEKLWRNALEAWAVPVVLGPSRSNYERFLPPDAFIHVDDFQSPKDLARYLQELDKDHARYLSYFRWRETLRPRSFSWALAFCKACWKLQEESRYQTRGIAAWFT
Protocol: (§1) A Canto II (BD Biosciences) flow cytometer was utilized for flow cytometry and the data acquired was analyzed using FlowJo Software (Treestar). Cells were stained using antibodies specific to sLe^X (Alexa-Fluor 488 Mouse Anti-Human CD15s (BD Biosciences)), or Le^X (APC anti-human CD15 (SSEA-1) Antibody (BioLegend)).
(§2) Cells of the RPMI-8402 cell line and MSC cell line were treated with either 0.3 ug of fucosyltransferase VI (FTVI), 2.7 ug of fucosyltransferase VII (FTVII), 1.0 ug fucosyltransferase IX (FTIX) or buffer-only at 37° C. for 60 minutes. All reactions contained at 1×10^6 cells/30 ul in HBSS with 10 mM Hepes, 0.1% Human Serum Albumin, and 1.0 mM GDP fucose (GDP-Fuc) (Carbosynth) and the appropriate fucosytransferase. Then, mimetic 1 was added to each of the treatment groups in molar equivalents with respect to GDP-Fuc with each of the fucosytransferases. […]
(§3) Mimetic 1 (FIG. 1) was tested as an inhibitor of FT-mediated exofucosylation on these cells and the extent of fucosylation was monitored using antibodies that detect the creation of the relevant fucosylated epitopes, i.e., sLe^x or Le^x. […]

[2] = target: T2, fucosyltransferase VII (FTVII) (Homo sapiens, UniProt Q11130); assay: FTVII exofucosylation of mesenchymal stem cells (MSC), sLe^x by flow cytometry; type: cell-based; conditions: MSCs
T2 sequence (Q11130 37-342 limits assumed): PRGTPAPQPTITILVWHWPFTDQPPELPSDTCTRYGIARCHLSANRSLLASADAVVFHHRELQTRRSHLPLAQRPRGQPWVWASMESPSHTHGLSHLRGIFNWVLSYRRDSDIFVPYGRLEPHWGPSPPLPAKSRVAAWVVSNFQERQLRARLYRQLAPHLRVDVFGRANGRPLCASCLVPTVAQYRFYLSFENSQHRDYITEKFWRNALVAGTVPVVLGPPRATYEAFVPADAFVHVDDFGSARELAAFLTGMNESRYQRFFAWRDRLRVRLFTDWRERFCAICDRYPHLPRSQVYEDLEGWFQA
Protocol: as §1, §2, §3

E-selectin bearing HUVEC = assay: Parallel plate flow chamber: exofucosylated RPMI-8402 cells on TNFα-stimulated HUVEC under shear; type: cell-based, human; conditions: for number of interacting RPMI-8402 cells on HUVEC: shear 0.5-8 dynes/cm^2
Protocol: Human umbilical vein endothelial cells (HUVEC, Lonza) were cultured in Endothelial Cell Growth Media (R&D Systems) in Bioflux microfluidic chambers that had been previously coated with 250 ug/ml fibronectin (BD Biosciences). Then 4 hours prior to rolling assay, cells were activated with 40 ng/ml TNFα (R&D Systems). Different cell subsets, based on exofucoslylation/mimetic conditions, were then infused into the chamber at a concentration of 2×10^6/ml and shear stress was applied from 0.5-8 dynes/cm^2. Then RPMI-8402 subsets were loaded into chambers containing monolayers of E-selectin bearing HUVECs with an initial shear rate of 0.5 dyne/cm^2, with stepwise increments in the shear rate up to 8 dynes/cm^2. The number of tethering/interacting RPMI-8402 cells on HUVEC were quantified at each shear rate and averaged across three different fields of view.
As sLe^x is the primary ligand for E-selectin which is induced on endothelial cells by inflammatory cytokine, e.g., TNFα the biological impacts of mimetic 1's inhibition of sLe^x binding to E-selectin under hemodynamic shear was evaluated. To this end, RPMI-8402 cells were left untreated or exofucosylated with 1.0 mM GDP-Fuc, 1.0 mM GDP-Fuc and 2.0 mM mimetic 1 or preincubated with FTVI and 2.0 mM mimetic 1 for 45 min followed by addition of 1.0 mM GDP-Fuc for 1 h and the presence of sLe^x determined by flow cytometry (FIGS. 6A and 6B). The RPMI-8402 cells treated as outlined above were then loaded in a parallel plate flow chamber seeded with monolayers of human umbilical vein endothelial cells (HUVEC) that had been stimulated with TNFα (FIG. 6C). The RPMI cells were introduced under defined fluid shear conditions to determine inhibition.

- inhibition of FTVI production of Le^x [1]: clearly inhibited
- inhibition of FTVI production of sLe^x [1]: markedly diminished
- inhibition of FTVII sLe^x production ([2]; 1.0 mM GDP-Fuc with 1.0 mM or 2.0 mM mimetic 1): inhibition was clear
- level of FTVII inhibition in pre-incubation reactions ([2]; pre-incubation with 2.0 mM mimetic 1, then 1.0 mM GDP-Fuc): stronger
Structure (SMILES): CC1OC2Oc3ccc(CC(=O)O)cc3SC2C(O)C1O (stereo not shown) [mimetic 1]
- number of interacting RPMI-8402 cells on HUVEC (E-selectin bearing HUVEC; exofucosylated with FTVI, 1.0 mM GDP-Fuc and 2.0 mM mimetic 1): reduced the number of interacting cells
- ability of cells to adhere to HUVEC (E-selectin bearing HUVEC; physiologically relevant shear conditions): reduced the ability of cells to adhere to HUVEC
- number of interacting RPMI-8402 cells on HUVEC (E-selectin bearing HUVEC; preincubation with FTVI and 2.0 mM mimetic 1 for 45 min, then 1.0 mM GDP-Fuc for 1 h): reduced the number of interacting cells
